US8895051B2, “Flavoring systems for pharmaceutical compositions and methods of making such compositions” (AbbVie Inc., priority 2000, dated 2014)

Legend:
solubility in water = type: physicochemical; settings: room temperature and pressure (approximately 25° C. and 1 atmosphere)
[1] = solubility in pharmaceutically acceptable solvents and in a co-solvent system; type: physicochemical

Cc1cccc(C)c1OCC(=O)N[C@@H](Cc1ccccc1)[C@@H](O)C[C@H](Cc1ccccc1)NC(=O)[C@H](C(C)C)N1CCCNC1=O (relative stereo) [lopinavir, [1S-[1R*,(R*),3R*,4R*]]-N-[4-[[(2,6-dimethylphenoxy)acetyl]amino]-3-hydroxy-5-phenyl-1-(phenylmethyl)pentyl]tetrahydro-alpha-(1-methylethyl)-2-oxo-(2H)-pyrimidine acetamide]
solubility in water (solubility in water): practically insoluble
solubility in pharmaceutically acceptable solvents, such as propylene glycol and ethanol ([1]; individual solvents, room temperature (about 25° C.)): adequately soluble
solubility in a co-solvent system ([1]; more than one solvent in the solvent system, versus individual solvents): significantly improved
